From patent US9090568B2, “Quinazolinediones and their use” (IMPACT Therapeutics, Inc., priority 2011, dated 2015) come the findings set out here.

pEC50, pIC50: −log10 of the molar value. Where two headings read alike, the source gives them in different places.

The target in data set [1] is T1, PARP-1 (Homo sapiens, UniProt P09874).
T1 construct: purchased Trevigen
Nature of the data set: PARP-1 activity assay (HT Universal chemiluminescent PARP Assay Kit). In kind it is biochemical. The following applies: 0.5 unit/well PARP-1, 25° C., 45 minutes; read-out: PARP1 enzyme IC50. As for the experimental part: PARP-1 activity was determined using a HT Universal chemiluminescent PARP Assay Kit (Trevigen, Gaithersburg, Md., USA). The assay was to measure the incorporation of biotinylated poly(ADP-ribose) onto histone proteins catalyzed by PARP-1 upon activation with DNA. Experimental procedures were followed according to the instruction provided with the assay kit. In brief, PARP-1 (0.5 unit/well) was incubated with activated DNA and NAD^+ in reaction buffer in the presence or absence of test articles in histone-coated strip wells at 25° C. for 45 minutes. After incubation, the strip wells were incubated with Strep-HRP at 25° C. for 60 minutes after washes with PBS containing 0.1% Triton X-100. The chemiluminescence was measured with a Victor X5 2030 Multilabel Reader (Perkin Elmer) immediately after the addition of PeroxyGlow™ to the strip wells. IC50 value was calculated using median-effect method (Chou, T. C. (2006). Pharmacol. Rev. 58(3): 621-681).

Data set [2] deals with MDA-MB-436 cells. Kind of data set: Cell proliferation assay (MTS, 7 days). In kind it is cell-based. The following applies: Homo sapiens; for pEC50: 168 h, MDA-MB-436 cells, 7 days, MTS, read-out: MDA-MB-436 cells EC50. The method, then:
Cell Proliferation Assay:
MDA-MB-436 cells were purchased from American Type Culture Collection (USA). Cells were maintained at 37° C. in a humidified atmosphere with 5% CO2. For proliferation test, MDA-MB-436 cells were seeded in 96-well plates at low density in RPMI-1640 medium supplemented with 10% FBS and incubated for 24 h at 37° C. in a humidified atmosphere with 5% CO2. Cells were further incubated in fresh medium in the presence or absence of the test articles at 37° C. for 7 days. The proliferation of cells was measured with a 3-(4,5-dimethylthiazol-2-yl)-5-(3-carboxymethoxyphenyl)-2-(4-sulfophenyl)-2H-tetrazolium (MTS) assay using a CellTiter 96® Aqueous Non-Radioactive Cell Proliferation kit (Promega). The absorbance at 490 nm (A490) was determined with a Victor X5 2030 Multilabel Reader (Perkin Elmer). IC50 value was calculated using median-effect method (Chou, T. C. (2006). Pharmacol. Rev. 58(3): 621-681).

Data set [3] is described as follows: Pharmacokinetic assay, intravenous and oral administration. In kind it is in vivo, Sprague-Dawley rats. The conditions noted are these: after oral administrations in rats; for half-life: Sprague-Dawley, rat, plasma, read-out: t½. As for the experimental part:
The tested articles were given to Sprague-Dawley rats by intravenous and oral administration. Plasma samples were prepared from blood samples which were collected at various time points. The plasma concentrations of the tested articles were determined by specific LC-MS/MS analytical methods. Pharmacokinetic parameters were calculated with WinNonlin®.

T1 sequence (P09874 whole entry): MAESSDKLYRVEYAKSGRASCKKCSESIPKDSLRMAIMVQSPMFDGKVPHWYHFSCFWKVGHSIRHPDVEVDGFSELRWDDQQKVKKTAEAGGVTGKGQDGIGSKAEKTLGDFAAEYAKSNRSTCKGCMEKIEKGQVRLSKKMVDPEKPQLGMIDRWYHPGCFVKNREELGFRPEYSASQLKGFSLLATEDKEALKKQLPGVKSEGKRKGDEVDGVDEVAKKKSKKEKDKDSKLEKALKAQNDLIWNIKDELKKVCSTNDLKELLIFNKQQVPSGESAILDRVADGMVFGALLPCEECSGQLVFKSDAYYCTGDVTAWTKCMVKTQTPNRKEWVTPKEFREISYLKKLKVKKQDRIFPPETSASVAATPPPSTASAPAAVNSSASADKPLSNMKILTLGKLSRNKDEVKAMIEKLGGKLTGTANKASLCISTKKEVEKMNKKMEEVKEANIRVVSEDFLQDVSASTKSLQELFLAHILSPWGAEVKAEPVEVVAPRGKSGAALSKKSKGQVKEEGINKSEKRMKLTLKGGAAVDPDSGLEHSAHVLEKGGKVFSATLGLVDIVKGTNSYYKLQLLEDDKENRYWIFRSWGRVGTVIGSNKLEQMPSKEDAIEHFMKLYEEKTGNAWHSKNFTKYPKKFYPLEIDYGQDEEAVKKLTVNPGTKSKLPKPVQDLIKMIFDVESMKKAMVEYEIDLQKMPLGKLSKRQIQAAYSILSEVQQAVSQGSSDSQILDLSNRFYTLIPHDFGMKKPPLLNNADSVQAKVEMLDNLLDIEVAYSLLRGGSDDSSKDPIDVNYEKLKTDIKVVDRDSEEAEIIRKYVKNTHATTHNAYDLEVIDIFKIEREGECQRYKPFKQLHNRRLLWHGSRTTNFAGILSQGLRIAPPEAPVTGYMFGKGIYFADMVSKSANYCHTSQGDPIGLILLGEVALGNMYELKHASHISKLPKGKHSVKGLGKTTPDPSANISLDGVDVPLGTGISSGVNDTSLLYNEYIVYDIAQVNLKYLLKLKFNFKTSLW

As for `CC1(C(=O)N2CCN(C(=O)c3cc(Cn4c(=O)[nH]c(=O)c5ccccc54)ccc3F)CC2)CCCN1` (stereo in doubt) [Example 40, (R)-1-(4-fluoro-3-(4-(2-methylpyrrolidine-2-carbonyl)piperazine-1-carbonyl)benzyl)quinazoline-2,4(1H,3H)-dione], the pIC50 in data set [1] is 8.00 to 10.00. In addition, in data set [2], the pEC50 is less than 8.00.
Turning to `O=C(c1cc(Cn2c(=O)[nH]c(=O)c3ccccc32)ccc1F)N1CCN(C(=O)C2CC2)CC1` [Example 1], the pIC50 in data set [1] was 8.00 to 10.00. For the same compound, the EC50 in data set [2] (MDA-MB-436, 168 h, read-out: MDA-MB-436 cells EC50 (μM)) is more than 0.01 µM.
Regarding `O=C(c1cccc(Cn2c(=O)[nH]c(=O)c3ccccc32)c1)N1CCN(C(=O)C2CC2)CC1` [Example 2], the pIC50 in data set [1] is 8.00 to 10.00. The pEC50 in data set [2] is 4.00 to 6.00.
For `O=C(c1cc(Cn2c(=O)[nH]c(=O)c3ccccc32)ccc1Cl)N1CCN(C(=O)C2CC2)CC1` [Example 3], in data set [1], the pIC50 was 8.00 to 10.00. Further, the pEC50 in data set [2] was 4.00 to 6.00.
On the same counts, the results for `O=C(c1cc(Cn2c(=O)[nH]c(=O)c3ccccc32)ccc1F)N1CCCCC1` [Example 4] are less than 8.00 and 4.00 to 6.00.
On the same counts, the results for `O=C(c1cc(Cn2c(=O)[nH]c(=O)c3ccccc32)ccc1F)N1CCC(OC(F)F)CC1` [Example 11] are 8.00 to 10.00 and 4.00 to 6.00.
For `O=C(c1cc(Cn2c(=O)[nH]c(=O)c3ccccc32)ccc1F)N1CCC(Oc2ccccn2)CC1` [Example 12], the negative logarithm of the IC50 (pIC50) in data set [1] is 8.00 to 10.00. In data set [2], the pEC50 is 8.00 to 10.00.
Turning to `O=C(c1cc(Cn2c(=O)[nH]c(=O)c3ccccc32)ccc1F)N1CCC(n2cc(Br)cn2)CC1` [Example 14], the pIC50 in data set [1] was 8.00 to 10.00. For the same compound, in data set [2], the pEC50 is less than 8.00.
Regarding `O=C(c1cc(Cn2c(=O)[nH]c(=O)c3ccccc32)ccc1F)N1CCC(n2cccn2)CC1` [Example 15], the pIC50 in data set [1] was 8.00 to 10.00. In data set [2], the negative logarithm of the EC50 (pEC50) was 4.00 to 6.00.
On the same counts, the results for `O=C(c1cc(Cn2c(=O)[nH]c(=O)c3ccccc32)ccc1F)N1CCC(N2CCCC2)CC1` [Example 17] are 8.00 to 10.00 and less than 8.00.
On to `COC(=O)C1CCN(C(=O)c2cc(Cn3c(=O)[nH]c(=O)c4ccccc43)ccc2F)CC1` [Example 18], for which the pIC50 in data set [1] is 8.00 to 10.00. In data set [2], the pEC50 was 4.00 to 6.00.
On the same counts, the results for `CCNC(=O)OC1CCN(C(=O)c2cc(Cn3c(=O)[nH]c(=O)c4ccccc43)ccc2F)CC1` [Example 19] are less than 8.00 and 4.00 to 6.00.
For the compound `O=C(O)C1CCN(C(=O)c2cc(Cn3c(=O)[nH]c(=O)c4ccccc43)ccc2F)CC1` [Example 20], in data set [1], the pIC50 was less than 8.00.
`O=C(NC1CC1)C1CCN(C(=O)c2cc(Cn3c(=O)[nH]c(=O)c4ccccc43)ccc2F)CC1` [Example 21]: the pIC50 in data set [1] is less than 8.00. The pEC50 in data set [2] is 4.00 to 6.00.
For `O=C(c1cc(Cn2c(=O)[nH]c(=O)c3ccccc32)ccc1F)N1CCC(ON=C2CCc3ccccc32)CC1` [Example 22], the pIC50 in data set [1] is less than 8.00.
Regarding `O=C(c1cc(Cn2c(=O)[nH]c(=O)c3ccccc32)ccc1F)N1Cc2cccc(F)c2C1` [Example 24], the pIC50 in data set [1] was 8.00 to 10.00. The pEC50 in data set [2] was less than 8.00.
For the compound `O=C(c1cc(Cn2c(=O)[nH]c(=O)c3ccccc32)ccc1F)N1Cc2cccnc2C1` [Example 25], in data set [3], the half-life was more than 2 h and the “bioavailability (in words)” value is “bioavailable”. Further, the pIC50 in data set [1] is 8.00 to 10.00. Also, the pEC50 in data set [2] was less than 8.00.
As to `O=C(c1cc(Cn2c(=O)[nH]c(=O)c3ccccc32)ccc1F)N1Cc2nccnc2C1` [Example 26], the negative-log IC50 (pIC50) in data set [1] was 8.00 to 10.00. The negative logarithm of the EC50 (pEC50) in data set [2] was less than 8.00.
Turning to `O=C(c1cc(Cn2c(=O)[nH]c(=O)c3ccccc32)ccc1F)N1CCN(c2ncccn2)CC1` [Example 28], the pIC50 in data set [1] was 8.00 to 10.00. For the same compound, in data set [2], the pEC50 was 8.00 to 10.00.
For the compound `O=C(c1cc(Cn2c(=O)[nH]c(=O)c3ccccc32)ccc1F)N1CC=C(c2ccc(F)cc2)CC1` [Example 29], the pIC50 in data set [1] was 8.00 to 10.00. In data set [2], the pEC50 was 4.00 to 6.00.
With `O=C(c1ccccn1)N1CCN(C(=O)c2cc(Cn3c(=O)[nH]c(=O)c4ccccc43)ccc2F)CC1` [Example 30], the pIC50 in data set [1] was 8.00 to 10.00. Besides, in data set [2], the pEC50 was less than 8.00.
For the compound `O=C(c1cc(Cn2c(=O)[nH]c(=O)c3ccccc32)ccc1F)N1CCNCC1` [Example 30b, 1-(4-fluoro-3-(piperazine-1-carbonyl)benzyl)quinazoline-2,4(1H,3H)-dione hydrochloric acid], the pIC50 in data set [1] was 8.00 to 10.00.
On to `O=C(c1ccno1)N1CCN(C(=O)c2cc(Cn3c(=O)[nH]c(=O)c4ccccc43)ccc2F)CC1` [Example 31], for which the pIC50 in data set [1] was 8.00 to 10.00. Moreover, the negative-log EC50 (pEC50) in data set [2] is less than 8.00.
On the same counts, the results for `O=C(c1cnccn1)N1CCN(C(=O)c2cc(Cn3c(=O)[nH]c(=O)c4ccccc43)ccc2F)CC1` [Example 32] are 8.00 to 10.00 and less than 8.00.
With `Cc1cnc(C(=O)N2CCN(C(=O)c3cc(Cn4c(=O)[nH]c(=O)c5ccccc54)ccc3F)CC2)cn1` [Example 33], the pIC50 in data set [1] was 8.00 to 10.00. For the same compound, the pEC50 in data set [2] is less than 8.00.
On the same counts, the results for `O=C(c1cnco1)N1CCN(C(=O)c2cc(Cn3c(=O)[nH]c(=O)c4ccccc43)ccc2F)CC1` [Example 34] are 8.00 to 10.00 and less than 8.00.
Turning to `Cc1cc(C(=O)N2CCN(C(=O)c3cc(Cn4c(=O)[nH]c(=O)c5ccccc54)ccc3F)CC2)no1` [Example 35], the pIC50 in data set [1] is 8.00 to 10.00. Moreover, the pEC50 in data set [2] was less than 8.00.
On the same counts, the results for `Cc1cc(C(=O)N2CCN(C(=O)c3cc(Cn4c(=O)[nH]c(=O)c5ccccc54)ccc3F)CC2)on1` [Example 36] are 8.00 to 10.00 and less than 8.00.
On the same counts, the results for `Cc1nc(C)c(C(=O)N2CCN(C(=O)c3cc(Cn4c(=O)[nH]c(=O)c5ccccc54)ccc3F)CC2)o1` [Example 37] are 8.00 to 10.00 and less than 8.00.
Take `O=C(c1cc(Cn2c(=O)[nH]c(=O)c3ccccc32)ccc1F)N1CCN(C(=O)C2CCCO2)CC1` (stereo not shown) [Example 38]: in data set [3], the half-life was more than 2 h and the “bioavailability (in words)” value is “bioavailable”. For the same compound, the pIC50 in data set [1] was 8.00 to 10.00. Also, the pEC50 in data set [2] was less than 8.00.
As for `CC1(C(=O)N2CCN(C(=O)c3cc(Cn4c(=O)[nH]c(=O)c5ccccc54)ccc3F)CC2)CCCO1` (stereo not shown) [Example 39], the pIC50 in data set [1] is 8.00 to 10.00. For the same compound, the pEC50 in data set [2] was less than 8.00.
On the same counts, the results for `CCOC(=O)N1CCN(C(=O)c2cc(Cn3c(=O)[nH]c(=O)c4ccccc43)ccc2F)CC1` [Example 41] are 8.00 to 10.00 and less than 8.00.
On the same counts, the results for `O=C(OC1CCCC1)N1CCN(C(=O)c2cc(Cn3c(=O)[nH]c(=O)c4ccccc43)ccc2F)CC1` [Example 42] are 8.00 to 10.00 and less than 8.00.
